# Laboratory results: patent US8541588B2, “Sulfonamide derivatives” (Pfizer Limited, priority 2009, dated 2013)
# Target: T1, Nav1.7 (or SCN9A) channel; HEK cells stably transfected with hSCN9A (Homo sapiens, UniProt Q15858)
# T1 construct: expressed in transfected cells
# Experiment: Nav1.7 block, PatchXpress 7000 automated whole-cell voltage clamp, estimated IC50 (EIC50)
# Assay type: cell-based
# Details: PatchXpress platform; hSCN9A HEK cells held at V1/2 of inactivation; estimated IC50
# T1 sequence (Q15858 whole entry): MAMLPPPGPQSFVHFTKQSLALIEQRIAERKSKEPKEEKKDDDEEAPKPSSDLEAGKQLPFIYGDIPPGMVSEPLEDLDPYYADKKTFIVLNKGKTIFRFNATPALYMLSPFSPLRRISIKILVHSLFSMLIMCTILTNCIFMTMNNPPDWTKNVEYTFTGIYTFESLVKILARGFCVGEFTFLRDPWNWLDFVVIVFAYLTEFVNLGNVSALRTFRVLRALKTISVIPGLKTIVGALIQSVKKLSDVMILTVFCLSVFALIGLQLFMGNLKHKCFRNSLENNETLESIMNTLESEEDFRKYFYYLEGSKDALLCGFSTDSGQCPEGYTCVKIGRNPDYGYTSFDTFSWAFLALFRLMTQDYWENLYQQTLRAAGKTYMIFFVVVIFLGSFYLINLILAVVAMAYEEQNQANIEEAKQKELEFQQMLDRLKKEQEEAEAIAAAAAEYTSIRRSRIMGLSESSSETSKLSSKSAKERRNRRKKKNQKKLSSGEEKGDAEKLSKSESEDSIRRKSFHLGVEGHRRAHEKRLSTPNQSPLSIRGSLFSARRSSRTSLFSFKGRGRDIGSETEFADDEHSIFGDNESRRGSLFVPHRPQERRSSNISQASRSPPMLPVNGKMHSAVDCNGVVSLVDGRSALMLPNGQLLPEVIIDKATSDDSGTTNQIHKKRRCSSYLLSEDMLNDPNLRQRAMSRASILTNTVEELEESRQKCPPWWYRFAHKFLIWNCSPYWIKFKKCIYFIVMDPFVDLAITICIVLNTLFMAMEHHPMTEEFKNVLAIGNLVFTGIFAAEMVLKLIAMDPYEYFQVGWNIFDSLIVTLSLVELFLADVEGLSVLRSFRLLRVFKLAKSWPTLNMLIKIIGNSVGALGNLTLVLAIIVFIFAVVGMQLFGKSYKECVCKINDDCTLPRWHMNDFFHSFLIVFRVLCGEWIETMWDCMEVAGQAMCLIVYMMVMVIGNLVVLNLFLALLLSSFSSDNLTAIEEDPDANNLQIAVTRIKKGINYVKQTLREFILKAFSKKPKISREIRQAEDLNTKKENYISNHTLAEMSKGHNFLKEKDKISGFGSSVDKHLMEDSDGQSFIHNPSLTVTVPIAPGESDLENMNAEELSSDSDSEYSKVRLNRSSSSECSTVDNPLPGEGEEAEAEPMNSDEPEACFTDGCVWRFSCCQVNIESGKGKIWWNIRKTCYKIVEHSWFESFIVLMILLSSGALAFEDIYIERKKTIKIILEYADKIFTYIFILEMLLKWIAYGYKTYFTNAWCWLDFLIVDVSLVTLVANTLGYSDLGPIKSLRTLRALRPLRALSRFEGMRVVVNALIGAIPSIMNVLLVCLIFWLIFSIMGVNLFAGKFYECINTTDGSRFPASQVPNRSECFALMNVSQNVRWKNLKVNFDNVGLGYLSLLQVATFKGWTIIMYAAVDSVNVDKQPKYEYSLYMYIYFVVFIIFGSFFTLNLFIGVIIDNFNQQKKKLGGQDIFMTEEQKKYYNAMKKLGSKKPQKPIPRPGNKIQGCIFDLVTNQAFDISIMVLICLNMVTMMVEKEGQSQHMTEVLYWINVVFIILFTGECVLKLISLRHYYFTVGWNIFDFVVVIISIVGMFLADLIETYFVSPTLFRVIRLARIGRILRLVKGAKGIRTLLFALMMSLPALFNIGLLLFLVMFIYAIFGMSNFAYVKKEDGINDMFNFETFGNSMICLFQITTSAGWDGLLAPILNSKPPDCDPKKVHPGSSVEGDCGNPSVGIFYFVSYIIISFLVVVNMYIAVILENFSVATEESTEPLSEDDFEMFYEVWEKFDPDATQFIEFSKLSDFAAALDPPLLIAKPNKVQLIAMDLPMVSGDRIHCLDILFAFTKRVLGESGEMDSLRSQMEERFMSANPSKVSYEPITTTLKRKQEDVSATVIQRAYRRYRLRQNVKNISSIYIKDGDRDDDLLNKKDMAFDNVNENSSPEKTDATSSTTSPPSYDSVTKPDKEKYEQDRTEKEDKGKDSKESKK
row,SMILES,IC50 [nM]
1,"Cn1cnnc1-c1cc(Cl)ccc1Oc1ccc(S(=O)(=O)Nc2nccs2)cc1C#N [Example 182, 4-(4-chloro-2-(4-methyl-4H-1,2,4-triazol-3-yl)phenoxy)-3-cyano-N-(thiazol-2-yl)benzenesulfonamide]",930
2,"Cn1nc(Cc2ccc(Cl)cc2)cc1Oc1ccc(S(=O)(=O)Nc2nccs2)cc1F [Example 241, 4-[5-(4-chloro-benzyl)-2-methyl-2H-pyrazol-3-yloxy]-3-fluoro-N-thiazol-2-yl-benzenesulfonamide]",1470

# Continued, values first:
row,IC50 [nM],SMILES
1,160,"N#Cc1cc(S(=O)(=O)Nc2ncns2)ccc1Oc1ccccc1-c1ccc(F)cc1 [Example 49, 3-cyano-4-[(4′-fluorobiphenyl-2-yl)oxy]-N-1,2,4-thiadiazol-5-ylbenzenesulfonamide]"
2,4270,"N#Cc1cc(S(=O)(=O)Nc2ccon2)ccc1Oc1ccccc1-c1ccccc1 [Example 110, 4-(biphenyl-2-yloxy)-3-cyano-N-isoxazol-3-ylbenzenesulfonamide]"
3,150,"O=S(=O)(Nc1nccs1)c1ccc(Oc2ccc(Cl)cc2-c2ccnn2Cc2ccccc2)c(F)c1 [Example 220, 4-(2-(1-benzyl-1H-pyrazol-5-yl)-4-chlorophenoxy)-3-fluoro-N-(thiazol-2-yl)benzenesulfonamide]"
4,100,"O=S(=O)(Nc1ncns1)c1cc(F)c(Oc2ccccc2-c2ccccc2)cc1F [Example 266, 4-(biphenyl-2-yloxy)-2,5-difluoro-N-1,2,4-thiadiazol-5-ylbenzenesulfonamide]"
5,110,"Cn1nccc1-c1ccccc1Oc1ccc(S(=O)(=O)Nc2ncns2)cc1C#N [Example 70, 3-cyano-4-[2-(1-methyl-1H-pyrazol-5-yl)phenoxy]-N-1,2,4-thiadiazol-5-ylbenzenesulfonamide]"

# Same assay, conditions: estimated IC50; hSCN9A HEK cells, PatchXpress platform; Examples 283-814
row,SMILES,IC50 [nM]
1,"CCn1nc(C(F)(F)F)cc1-c1cccc(Oc2ccc(S(=O)(=O)Nc3nc(C)ns3)cc2C#N)c1 [Example 290, 3-cyano-4-{3-[1-ethyl-3-(trifluoromethyl)-1H-pyrazol-5-yl]phenoxy}-N-(3-methyl-1,2,4-thiadiazol-5-yl)benzenesulfonamide]",2000
2,"CCn1nc(C(F)(F)F)cc1-c1ccc(Oc2ccc(S(=O)(=O)Nc3nccs3)cc2C#N)cc1F [Example 327, 3-cyano-4-{4-[1-ethyl-3-(trifluoromethyl)-1H-pyrazol-5-yl]-3-fluorophenoxy}-N-1,3-thiazol-2-ylbenzenesulfonamide]",370
3,"N#Cc1cc(S(=O)(=O)Nc2ncns2)ccc1Oc1ccc(C(F)(F)F)cc1-c1ccn[nH]1 [Example 741, 3-cyano-4-[2-(1H-pyrazol-5-yl)-4-(trifluoromethyl)phenoxy]-N-1,2,4-thiadiazol-5-ylbenzenesulfonamide]",7.8
4,"N#Cc1cc(S(=O)(=O)Nc2nccs2)ccc1Oc1ccc(-n2ccc(C(F)(F)F)n2)c(Cl)c1 [Example 380, 4-{3-chloro-4-[3-(trifluoromethyl)-1H-pyrazol-1-yl]phenoxy}-3-cyano-N-1,3-thiazol-2-ylbenzenesulfonamide]",200
5,"O=S(=O)(Nc1nccs1)c1ccc(Oc2ccc(OC(F)(F)F)cc2-c2cn[nH]c2)c(F)c1 [Example 687, 3-fluoro-4-[2-(1H-pyrazol-4-yl)-4-(trifluoromethoxy)phenoxy]-N-1,3-thiazol-2-ylbenzenesulfonamide]",80
6,"N#Cc1cc(S(=O)(=O)Nc2ncns2)ccc1Oc1ccc(OC(F)(F)F)cc1-c1cn[nH]c1 [Example 502, 3-cyano-4-[2-(1H-pyrazol-4-yl)-4-(trifluoromethoxy)phenoxy]-N-1,2,4-thiadiazol-5-ylbenzenesulfonamide]",22
7,"Cn1nccc1-c1cc(C#N)ccc1Oc1cc(F)c(S(=O)(=O)Nc2ncc(Cl)s2)cc1F [Example 441, N-(5-chloro-1,3-thiazol-2-yl)-4-[4-cyano-2-(1-methyl-1H-pyrazol-5-yl)phenoxy]-2,5-difluorobenzenesulfonamide]",960
8,"Cn1nccc1-c1cc(F)ccc1Oc1cc(F)c(S(=O)(=O)Nc2ccncn2)cc1Cl [Example 295, 5-chloro-2-fluoro-4-[4-fluoro-2-(1-methyl-1H-pyrazol-5-yl)phenoxy]-N-pyrimidin-4-ylbenzenesulfonamide]",130
9,"O=S(=O)(Nc1cscn1)c1cc(Cl)c(Oc2ccc(F)cc2-c2ccnn2CCO)cc1F [Example 517, 5-chloro-2-fluoro-4-{4-fluoro-2-[1-(2-hydroxyethyl)-1H-pyrazol-5-yl]phenoxy}-N-1,3-thiazol-4-ylbenzenesulfonamide]",2200
10,"CCn1nc(C(F)(F)F)cc1-c1ccc(Oc2ncc(S(=O)(=O)Nc3nccs3)cc2C#N)cc1 [Example 740, 5-cyano-6-{4-[1-ethyl-3-(trifluoromethyl)-1H-pyrazol-5-yl]phenoxy}-N-1,3-thiazol-2-ylpyridine-3-sulfonamide]",400

# Results, then the compound that gave them:
row,IC50 [nM],SMILES
1,1500,"Cn1nccc1-c1cc(Cl)ccc1Oc1ccc(S(=O)(=O)Nc2ncsc2F)cc1C#N [Example 602, 4-[4-chloro-2-(1-methyl-1H-pyrazol-5-yl)phenoxy]-3-cyano-N-(5-fluoro-1,3-thiazol-4-yl)benzenesulfonamide]"
2,9900,"N#Cc1cc(S(=O)(=O)Nc2nccs2)ccc1Oc1cccc(-c2ccn[nH]2)c1 [Example 444, 3-cyano-4-[3-(1H-pyrazol-5-yl)phenoxy]-N-1,3-thiazol-2-ylbenzenesulfonamide]"
3,36000,"N#Cc1cc(S(=O)(=O)Nc2cnc(Cl)nc2)ccc1Oc1ccccc1-c1ccccc1 [Example 426, 4-(biphenyl-2-yloxy)-N-(2-chloropyrimidin-5-yl)-3-cyanobenzenesulfonamide]"
4,>1000,"Cn1cc(-c2ccc(Oc3ccc(S(=O)(=O)Nc4nccs4)cc3C#N)cc2)c(N)n1 [Example 483, 4-[4-(3-amino-1-methyl-1H-pyrazol-4-yl)phenoxy]-3-cyano-N-1,3-thiazol-2-ylbenzenesulfonamide]"
5,>1000,"N#Cc1ccnc(NS(=O)(=O)c2ccc(Oc3ccccc3-c3ccccc3)c(C#N)c2)c1 [Example 422, 4-(biphenyl-2-yloxy)-3-cyano-N-(4-cyanopyridin-2-yl)benzenesulfonamide]"
6,1600,"Cn1nccc1-c1cc(Oc2ccc(S(=O)(=O)Nc3nccs3)cc2C#N)ccc1Cl [Example 648, 4-[4-chloro-3-(1-methyl-1H-pyrazol-5-yl)phenoxy]-3-cyano-N-1,3-thiazol-2-ylbenzenesulfonamide]"
7,32,"Cn1nccc1-c1ccc(I)cc1Oc1ccc(S(=O)(=O)Nc2ncc(F)s2)cc1C#N [Example 780, 3-cyano-N-(5-fluoro-1,3-thiazol-2-yl)-4-[5-iodo-2-(1-methyl-1H-pyrazol-5-yl)phenoxy]benzenesulfonamide]"
8,1000,"Cn1nccc1-c1cc(Cl)ccc1Oc1ccc(S(=O)(=O)Nc2ncc(F)cn2)cc1C#N [Example 465, 4-[4-chloro-2-(1-methyl-1H-pyrazol-5-yl)phenoxy]-3-cyano-N-(5-fluoropyrimidin-2-yl)benzenesulfonamide]"

# Same assay, conditions: estimated IC50; hSCN9A HEK cells, PatchXpress platform; Examples 815-1040
row,SMILES,IC50 [nM]
1,"Cc1nn(C(C)(C)C)cc1-c1cc(Cl)ccc1Oc1cc(F)c(S(=O)(=O)Nc2nncs2)cc1Cl [Example 982, 4-[2-(1-tert-butyl-3-methyl-1H-pyrazol-4-yl)-4-chlorophenoxy]-5-chloro-2-fluoro-N-1,3,4-thiadiazol-2-ylbenzenesulfonamide]",>300
2,"O=S(=O)(Nc1nncs1)c1ccc(Oc2ccc(Cl)cc2-c2ccnnc2)c(C(F)(F)F)c1 [Example 1018, 4-(4-chloro-2-pyridazin-4-ylphenoxy)-N-1,3,4-thiadiazol-2-yl-3-(trifluoromethyl)benzenesulfonamide]",230
3,"N#Cc1cc(S(=O)(=O)Nc2ncns2)ccc1Oc1ccc(F)cc1C1CCOCC1 [Example 842, 3-cyano-4-[4-fluoro-2-(tetrahydro-2H-pyran-4-yl)phenoxy]-N-1,2,4-thiadiazol-5-ylbenzenesulfonamide]",96
4,"N#Cc1cc(S(=O)(=O)Nc2ncns2)ccc1Oc1cc(F)c(C(F)(F)F)cc1-c1ccnnc1 [Example 1035, 3-Cyano-4-[5-fluoro-2-pyridazin-4-yl-4-(trifluoromethyl)phenoxy]-N-1,2,4-thiodiazol-5-ylbenzenesulfonamide]",3.8
5,"O=C(c1cccc(-c2cc(Cl)ccc2Oc2cc(F)c(S(=O)(=O)Nc3ncns3)cc2Cl)c1)N1CCC1 [Example 823, 4-{[3′-(azetidin-1-ylcarbonyl)-5-chlorobiphenyl-2-yl]oxy}-5-chloro-2-fluoro-N-1,2,4-thiadiazol-5-ylbenzenesulfonamide]",7.4
6,"O=S(=O)(Nc1ncns1)c1cc(F)c(Oc2ccc(C(F)(F)F)cc2-c2cccnn2)cc1F [Example 920, 2,5-difluoro-4-[2-pyridazin-3-yl-4-(trifluoromethyl)phenoxy]-N-1,2,4-thiadiazol-5-ylbenzenesulfonamide]",310

# Results, then the compound that gave them:
row,IC50 [nM],SMILES
1,110,"N#Cc1cc(S(=O)(=O)Nc2ncns2)ccc1Oc1ccc(C(F)(F)F)cc1-c1ccc[n+]([O-])c1 [Example 979, 3-cyano-4-[2-(1-oxidopyridin-3-yl)-4-(trifluoromethyl)phenoxy]-N-1,2,4-thiadiazol-5-ylbenzenesulfonamide]"
2,15,"N#Cc1cc(S(=O)(=O)Nc2ncns2)ccc1Oc1ccc(Cl)cc1-c1ccnnc1 [Example 868, 4-(4-chloro-2-pyridazin-4-ylphenoxy)-3-cyano-N-1,2,4-thiadiazol-5-ylbenzenesulfonamide]"
3,>10000,"Cn1nccc1NS(=O)(=O)c1ccc(Oc2ccc(Cl)cc2-c2ccnn2C)c(C#N)c1 [Example 894, 4-[4-chloro-2-(1-methyl-1H-pyrazol-5-yl)phenoxy]-3-cyano-N-(1-methyl-1H-pyrazol-5-yl)benzenesulfonamide]"
4,3.9,"N#Cc1cc(S(=O)(=O)Nc2cscn2)ccc1Oc1ccc(Cl)cc1-c1ccnc(N2CCNCC2)c1 [Example 834, 4-[4-chloro-2-(2-piperazin-1-ylpyridin-4-yl)phenoxy]-3-cyano-N-1,3-thiazol-4-ylbenzenesulfonamide]"
